Several values for one entry are separate records, joined by “and”; a condition that tells them apart may be missing. Identical values can stand only once.
Test system: angiotensin II (AII) vasopressor response
Experiment: AII challenge: inhibition of angiotensin II vasopressor response in conscious spontaneously hypertensive rats
Assay type: in vivo, rat (Okamoto-Aoki SHR)
Settings: 3 mg/kg IV; for % Inhibition (angiotensin blockage) of AII vasopressor response / Average Change (increase in systolic blood pressure after AII): SHR n = 2; for Change (increase in systolic blood pressure after AII), individual rat / Response After AII (systolic blood pressure), individual rat / Control Before AII (systolic blood pressure), individual rat: individual SHR
From the text: By administering a compound of this invention to a rat, and then challenging with angiotensin II, a blockage of the vasopressor response is realized.
Conscious Male Okamoto-Aoki SHR, 16-20 weeks old, weighing approximately 330 g are purchased from Charles River Labs (Wilmington, Mass.). Conscious rats are restrained in a supine position with elastic tape. The area at the base of the tail is locally anesthetized by subcutaneous infiltration with 2% procaine. The ventral caudal artery and vein are isolated, and a cannula made of polyethylene (PE) 10-20 tubing (fused together by heat) is passed into the lower abdominal aorta and vena cava, respectively. The cannula is secured, heparinized (1,000 I.U./ml), sealed and the wound is closed. The animals are placed in plastio restraininq cages in an upright position. The cannula is attached to a Statham P23Db pressure transducer, and pulsatile blood pressure is recorded to 10-15 minutes with a Gould Brush recorder. (Chan et al., (Drug Development Res., 18:75-94, 1989).
Angiotensin II (human sequence, Sigma Chem. Co., St. Louis, Mo.) of 0.05 and 0.1 mcg/kg i.v. is injected into all rats (predosing response). Then a test compound, vehicle or a known angiotensin II antagonist is administered i.v., i.p. or orally to each set of rats. The two doses of angiotensin II are given to each rat again at 30, 60, 90, 120, 180, 240 and 300 minutes post dosing the compound or vehicle. The vasopressor response of angiotensin II is measured for the increase in systolic blood pressure in mmHg. The percentage of antagonism or blockade of the vasopressor response of angiotensin II by a compound is calculated using the vasopressor response (increase in systolic blood pressure) of angiotensin II of each rat predosing the compound as 100%. A compound is considered active if at 30 mg/kg i.v. it antagonized at least 50% of the response.

[1] = AII 0.05 mcg/kg IV, 30 min post dose
[2] = AII 0.05 mcg/kg IV, 60 min post dose
[3] = AII 0.05 mcg/kg IV, 90 min post dose
[4] = AII 0.05 mcg/kg IV, 120 min post dose
[5] = AII 0.05 mcg/kg IV, 180 min post dose
[6] = AII 0.05 mcg/kg IV, 240 min post dose
[7] = AII 0.05 mcg/kg IV, 300 min post dose
[8] = AII 0.1 mcg/kg IV, 30 min post dose
[9] = AII 0.1 mcg/kg IV, 60 min post dose
[10] = AII 0.1 mcg/kg IV, 90 min post dose
[11] = AII 0.1 mcg/kg IV, 120 min post dose
[12] = AII 0.1 mcg/kg IV, 180 min post dose
[13] = AII 0.1 mcg/kg IV, 240 min post dose
[14] = AII 0.1 mcg/kg IV, 300 min post dose

CCCCc1nc2ccc(C3=NN4CCCC4C3)cc2c(=O)n1Cc1ccc(-c2ccccc2-c2nnn[nH]2)cc1 (stereo not shown) [Example 10, 2-Butyl-6-(3a,4,5,6-tetrahydro-3H-pyrrolo[1,2-b]-pyrazol-2-yl)-3-[[2'-(1H-tetrazol-5-yl)[1,1'-biphenyl]-4-yl]methyl]-4(3H)-quinazolinone]
% Inhibition (angiotensin blockage) of AII vasopressor response [1]: 61%
Average Change (increase in systolic blood pressure after AII) [1]: 13.5 mmHg
Change (increase in systolic blood pressure after AII), individual rat [1]: 12 mmHg and 15 mmHg
% Inhibition (angiotensin blockage) of AII vasopressor response [2]: 7%
Average Change (increase in systolic blood pressure after AII) [2]: 32.5 mmHg
Change (increase in systolic blood pressure after AII), individual rat [2]: 30 mmHg and 35 mmHg
% Inhibition (angiotensin blockage) of AII vasopressor response [3]: 43%
Average Change (increase in systolic blood pressure after AII) [3]: 20 mmHg
Change (increase in systolic blood pressure after AII), individual rat [3]: 30 mmHg and 10 mmHg
% Inhibition (angiotensin blockage) of AII vasopressor response [4]: 43%
Average Change (increase in systolic blood pressure after AII) [4]: 20 mmHg
Change (increase in systolic blood pressure after AII), individual rat [4]: 25 mmHg and 15 mmHg
% Inhibition (angiotensin blockage) of AII vasopressor response [5]: 36%
Average Change (increase in systolic blood pressure after AII) [5]: 22.5 mmHg
Change (increase in systolic blood pressure after AII), individual rat [5]: 25 mmHg and 20 mmHg
% Inhibition (angiotensin blockage) of AII vasopressor response [6]: 50%
Average Change (increase in systolic blood pressure after AII) [6]: 17.5 mmHg
Change (increase in systolic blood pressure after AII), individual rat [6]: 20 mmHg and 15 mmHg
% Inhibition (angiotensin blockage) of AII vasopressor response [7]: 7%
Average Change (increase in systolic blood pressure after AII) [7]: 32.5 mmHg
Change (increase in systolic blood pressure after AII), individual rat [7]: 35 mmHg and 30 mmHg
% Inhibition (angiotensin blockage) of AII vasopressor response [8]: 55%
Average Change (increase in systolic blood pressure after AII) [8]: 22.5 mmHg
Change (increase in systolic blood pressure after AII), individual rat [8]: 20 mmHg and 25 mmHg
% Inhibition (angiotensin blockage) of AII vasopressor response [9]: 55%
Average Change (increase in systolic blood pressure after AII) [9]: 22.5 mmHg
Change (increase in systolic blood pressure after AII), individual rat [9]: 25 mmHg and 20 mmHg
% Inhibition (angiotensin blockage) of AII vasopressor response [10]: 50%
Average Change (increase in systolic blood pressure after AII) [10]: 25 mmHg
Change (increase in systolic blood pressure after AII), individual rat [10]: 25 mmHg
% Inhibition (angiotensin blockage) of AII vasopressor response [11]: 50%
Average Change (increase in systolic blood pressure after AII) [11]: 25 mmHg
Change (increase in systolic blood pressure after AII), individual rat [11]: 30 mmHg and 20 mmHg
% Inhibition (angiotensin blockage) of AII vasopressor response [12]: 45%
Average Change (increase in systolic blood pressure after AII) [12]: 27.5 mmHg
Change (increase in systolic blood pressure after AII), individual rat [12]: 30 mmHg and 25 mmHg
% Inhibition (angiotensin blockage) of AII vasopressor response [13]: 50%
Average Change (increase in systolic blood pressure after AII) [13]: 25 mmHg
Change (increase in systolic blood pressure after AII), individual rat [13]: 25 mmHg
% Inhibition (angiotensin blockage) of AII vasopressor response [14]: 30%
Average Change (increase in systolic blood pressure after AII) [14]: 35 mmHg
Change (increase in systolic blood pressure after AII), individual rat [14]: 45 mmHg and 25 mmHg
Response After AII (systolic blood pressure), individual rat (after AII 0.05 mcg/kg IV, 30 min post dose): 242 mmHg and 255 mmHg
Response After AII (systolic blood pressure), individual rat (after AII 0.05 mcg/kg IV, 60 min post dose): 255 mmHg and 270 mmHg
Response After AII (systolic blood pressure), individual rat (after AII 0.05 mcg/kg IV, 90 min post dose): 255 mmHg and 250 mmHg
Response After AII (systolic blood pressure), individual rat (after AII 0.05 mcg/kg IV, 120 min post dose): 250 mmHg and 230 mmHg
Response After AII (systolic blood pressure), individual rat (after AII 0.05 mcg/kg IV, 180 min post dose): 235 mmHg
Response After AII (systolic blood pressure), individual rat (after AII 0.05 mcg/kg IV, 240 min post dose): 230 mmHg and 235 mmHg
Response After AII (systolic blood pressure), individual rat (after AII 0.05 mcg/kg IV, 300 min post dose): 250 mmHg and 245 mmHg
Response After AII (systolic blood pressure), individual rat (after AII 0.1 mcg/kg IV, 30 min post dose): 250 mmHg and 260 mmHg
Response After AII (systolic blood pressure), individual rat (after AII 0.1 mcg/kg IV, 60 min post dose): 255 mmHg and 260 mmHg
Response After AII (systolic blood pressure), individual rat (after AII 0.1 mcg/kg IV, 90 min post dose): 265 mmHg and 260 mmHg
Response After AII (systolic blood pressure), individual rat (after AII 0.1 mcg/kg IV, 120 min post dose): 265 mmHg and 240 mmHg
Response After AII (systolic blood pressure), individual rat (after AII 0.1 mcg/kg IV, 180 min post dose): 245 mmHg and 250 mmHg
Response After AII (systolic blood pressure), individual rat (after AII 0.1 mcg/kg IV, 240 min post dose): 250 mmHg and 240 mmHg
Response After AII (systolic blood pressure), individual rat (after AII 0.1 mcg/kg IV, 300 min post dose): 255 mmHg and 250 mmHg
Control Before AII (systolic blood pressure), individual rat (before AII 0.05 mcg/kg IV, 30 min post dose): 230 mmHg and 240 mmHg
Control Before AII (systolic blood pressure), individual rat (before AII 0.05 mcg/kg IV, 60 min post dose): 225 mmHg and 235 mmHg
Control Before AII (systolic blood pressure), individual rat (before AII 0.05 mcg/kg IV, 90 min post dose): 225 mmHg and 240 mmHg
Control Before AII (systolic blood pressure), individual rat (before AII 0.05 mcg/kg IV, 120 min post dose): 225 mmHg and 215 mmHg
Control Before AII (systolic blood pressure), individual rat (before AII 0.05 mcg/kg IV, 180 min post dose): 210 mmHg and 215 mmHg
Control Before AII (systolic blood pressure), individual rat (before AII 0.05 mcg/kg IV, 240 min post dose): 210 mmHg and 220 mmHg
Control Before AII (systolic blood pressure), individual rat (before AII 0.05 mcg/kg IV, 300 min post dose): 215 mmHg
Control Before AII (systolic blood pressure), individual rat (before AII 0.1 mcg/kg IV, 30 min post dose): 230 mmHg and 235 mmHg
Control Before AII (systolic blood pressure), individual rat (before AII 0.1 mcg/kg IV, 60 min post dose): 230 mmHg and 240 mmHg
Control Before AII (systolic blood pressure), individual rat (before AII 0.1 mcg/kg IV, 90 min post dose): 240 mmHg and 235 mmHg
Control Before AII (systolic blood pressure), individual rat (before AII 0.1 mcg/kg IV, 120 min post dose): 235 mmHg and 220 mmHg
Control Before AII (systolic blood pressure), individual rat (before AII 0.1 mcg/kg IV, 180 min post dose): 215 mmHg and 225 mmHg
Control Before AII (systolic blood pressure), individual rat (before AII 0.1 mcg/kg IV, 240 min post dose): 225 mmHg and 215 mmHg
Control Before AII (systolic blood pressure), individual rat (before AII 0.1 mcg/kg IV, 300 min post dose): 210 mmHg and 225 mmHg

From patent publication US5292742A, “Angiotensin II receptor blocking 2,3,6 substituted quinazolinones” (American Cyanamid Company, priority 1993, dated 1994)
